What was measured:
Test in all cases: KINOMEscan
Assay type in all cases: binding
[1] = molecular target: T1, AAK1 (Homo sapiens, UniProt Q2M2I8); details: AAK1, 1 uM
T1 construct: purchased Ambit KINOMEscan (DiscoverX)
How it was run: (§1)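 Substrate-binding inhibition measured with compound present at 1 μM, single concentration, to pick out affected kinases.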

[2] = molecular target: T2, ABL1(M351T)-phosphorylated (Homo sapiens, UniProt P00519, M351T); details: 1 uM
T2 construct: purchased Ambit KINOMEscan (DiscoverX)
How it was run: as §1

[3] = molecular target: T3, AMPK-alpha2 (Homo sapiens, UniProt P54646); details: AMPK-alpha2, 1 uM
T3 construct: purchased Ambit KINOMEscan (DiscoverX)
How it was run: as §1

[4] = molecular target: T4, AURKA (Homo sapiens, UniProt O14965); details: 1 uM
T4 construct: purchased Ambit KINOMEscan (DiscoverX)
How it was run: as §1

[5] = molecular target: T5, CAMK1 (Homo sapiens, UniProt Q14012); details: CAMK1, 1 uM
T5 construct: purchased Ambit KINOMEscan (DiscoverX)
How it was run: as §1

[6] = molecular target: T6, CDC2L1 (Homo sapiens, UniProt P21127); details: CDC2L1, 1 uM
T6 construct: purchased Ambit KINOMEscan (DiscoverX)
How it was run: as §1

[7] = molecular target: T7, CLK4 (Homo sapiens, UniProt Q9HAZ1); details: CLK4, 1 uM
T7 construct: purchased Ambit KINOMEscan (DiscoverX)
How it was run: as §1

[8] = molecular target: T8, CSNK1G1 (Homo sapiens, UniProt Q9HCP0); details: CSNK1G1, 1 uM
T8 construct: purchased Ambit KINOMEscan (DiscoverX)
How it was run: as §1

[9] = molecular target: T9, DMPK2 (Homo sapiens, UniProt Q6DT37); details: DMPK2, 1 uM
T9 construct: purchased Ambit KINOMEscan (DiscoverX)
How it was run: as §1

[10] = molecular target: T10, DYRK2 (Homo sapiens, UniProt Q92630); details: DYRK2, 1 uM
T10 construct: purchased Ambit KINOMEscan (DiscoverX)
How it was run: as §1

[11] = molecular target: T11, EGFR(G719C) (Homo sapiens, UniProt P00533, G719C); details: 1 uM
T11 construct: purchased Ambit KINOMEscan (DiscoverX)
How it was run: as §1

[12] = molecular target: T12, EGFR(L747-T751del,Sins) (Homo sapiens, UniProt P00533, DEL747-750/T751S); details: 1 uM
T12 construct: purchased Ambit KINOMEscan (DiscoverX)
How it was run: as §1

[13] = molecular target: T13, EPHA1 (Homo sapiens, UniProt P21709); details: EPHA1, 1 uM
T13 construct: purchased Ambit KINOMEscan (DiscoverX)
How it was run: as §1

[14] = molecular target: T14, EPHA3 (Homo sapiens, UniProt P29320); details: EPHA3, 1 uM
T14 construct: purchased Ambit KINOMEscan (DiscoverX)
How it was run: as §1

[15] = molecular target: T15, EPHA4 (Homo sapiens, UniProt P54764); details: EPHA4, 1 uM
T15 construct: purchased Ambit KINOMEscan (DiscoverX)
How it was run: as §1

[16] = molecular target: T16, EPHA6 (Homo sapiens, UniProt Q9UF33); details: EPHA6, 1 uM
T16 construct: purchased Ambit KINOMEscan (DiscoverX)
How it was run: as §1

[17] = molecular target: T17, HUNK (Homo sapiens, UniProt P57058); details: 1 uM
T17 construct: purchased Ambit KINOMEscan (DiscoverX)
How it was run: as §1

[18] = molecular target: T18, ICK (Homo sapiens, UniProt Q9UPZ9); details: 1 uM
T18 construct: purchased Ambit KINOMEscan (DiscoverX)
How it was run: as §1

[19] = molecular target: T19, JAK1(JH2domain-pseudokinase) (Homo sapiens, UniProt P23458); details: 1 uM
T19 construct: JAK1(JH2domain-pseudokinase); purchased Ambit KINOMEscan (DiscoverX)
How it was run: as §1

[20] = molecular target: T20, JNK3 (Homo sapiens, UniProt P53779); details: JNK3, 1 uM
T20 construct: purchased Ambit KINOMEscan (DiscoverX)
How it was run: as §1

[21] = molecular target: T21, MAP3K3 (Homo sapiens, UniProt Q99759); details: MAP3K3, 1 uM
T21 construct: purchased Ambit KINOMEscan (DiscoverX)
How it was run: as §1

[22] = molecular target: T22, MAST1 (Homo sapiens, UniProt Q9Y2H9); details: MAST1, 1 uM
T22 construct: purchased Ambit KINOMEscan (DiscoverX)
How it was run: as §1

[23] = molecular target: T23, MET (Homo sapiens, UniProt P08581); details: 1 uM
T23 construct: purchased Ambit KINOMEscan (DiscoverX)
How it was run: as §1

[24] = molecular target: T24, MRCKB (Homo sapiens, UniProt Q9Y5S2); details: 1 uM
T24 construct: purchased Ambit KINOMEscan (DiscoverX)
How it was run: as §1

[25] = molecular target: T25, MYLK2 (Homo sapiens, UniProt Q9H1R3); details: MYLK2, 1 uM
T25 construct: purchased Ambit KINOMEscan (DiscoverX)
How it was run: as §1

[26] = molecular target: T26, NDR1 (Homo sapiens, UniProt Q15208); details: NDR1, 1 uM
T26 construct: purchased Ambit KINOMEscan (DiscoverX)
How it was run: as §1

[27] = molecular target: T27, PDGFRA (Homo sapiens, UniProt P16234); details: 1 uM
T27 construct: purchased Ambit KINOMEscan (DiscoverX)
How it was run: as §1

[28] = molecular target: T28, PDGFRB (Homo sapiens, UniProt P09619); details: 1 uM
T28 construct: purchased Ambit KINOMEscan (DiscoverX)
How it was run: as §1

[29] = molecular target: T29, PFTAIRE2 (Homo sapiens, UniProt Q96Q40); details: PFTAIRE2, 1 uM
T29 construct: purchased Ambit KINOMEscan (DiscoverX)
How it was run: as §1

[30] = molecular target: T30, PHKG2 (Homo sapiens, UniProt P15735); details: PHKG2, 1 uM
T30 construct: purchased Ambit KINOMEscan (DiscoverX)
How it was run: as §1

[31] = molecular target: T31, PIK3CA (Homo sapiens, UniProt P42336); details: 1 uM
T31 construct: purchased Ambit KINOMEscan (DiscoverX)
How it was run: as §1

[32] = molecular target: T32, PIK3CA(E545K) (Homo sapiens, UniProt P42336, E545K); details: 1 uM
T32 construct: purchased Ambit KINOMEscan (DiscoverX)
How it was run: as §1

[33] = molecular target: T33, PIK4CB (Homo sapiens, UniProt Q9UBF8); details: 1 uM
T33 construct: purchased Ambit KINOMEscan (DiscoverX)
How it was run: as §1

[34] = molecular target: T34, PLK3 (Homo sapiens, UniProt Q9H4B4); details: PLK3, 1 uM
T34 construct: purchased Ambit KINOMEscan (DiscoverX)
How it was run: as §1

[35] = molecular target: T35, RIPK4 (Homo sapiens, UniProt P57078); details: RIPK4, 1 uM
T35 construct: purchased Ambit KINOMEscan (DiscoverX)
How it was run: as §1

[36] = molecular target: T36, ROCK1 (Homo sapiens, UniProt Q13464); details: for % binding compared to no inhibitor control: ROCK1, 1 uM
T36 construct: purchased Ambit KINOMEscan (DiscoverX)
How it was run: as §1

[37] = molecular target: T37, SRPK3 (Homo sapiens, UniProt Q9UPE1); details: SRPK3, 1 uM
T37 construct: purchased Ambit KINOMEscan (DiscoverX)
How it was run: as §1

[38] = molecular target: T38, TAOK1 (Homo sapiens, UniProt Q7L7X3); details: TAOK1, 1 uM
T38 construct: purchased Ambit KINOMEscan (DiscoverX)
How it was run: as §1

[39] = molecular target: T39, YSK1 (Homo sapiens, UniProt O00506); details: YSK1, 1 uM
T39 construct: purchased Ambit KINOMEscan (DiscoverX)
How it was run: as §1

T36 sequence (Q13464 whole entry): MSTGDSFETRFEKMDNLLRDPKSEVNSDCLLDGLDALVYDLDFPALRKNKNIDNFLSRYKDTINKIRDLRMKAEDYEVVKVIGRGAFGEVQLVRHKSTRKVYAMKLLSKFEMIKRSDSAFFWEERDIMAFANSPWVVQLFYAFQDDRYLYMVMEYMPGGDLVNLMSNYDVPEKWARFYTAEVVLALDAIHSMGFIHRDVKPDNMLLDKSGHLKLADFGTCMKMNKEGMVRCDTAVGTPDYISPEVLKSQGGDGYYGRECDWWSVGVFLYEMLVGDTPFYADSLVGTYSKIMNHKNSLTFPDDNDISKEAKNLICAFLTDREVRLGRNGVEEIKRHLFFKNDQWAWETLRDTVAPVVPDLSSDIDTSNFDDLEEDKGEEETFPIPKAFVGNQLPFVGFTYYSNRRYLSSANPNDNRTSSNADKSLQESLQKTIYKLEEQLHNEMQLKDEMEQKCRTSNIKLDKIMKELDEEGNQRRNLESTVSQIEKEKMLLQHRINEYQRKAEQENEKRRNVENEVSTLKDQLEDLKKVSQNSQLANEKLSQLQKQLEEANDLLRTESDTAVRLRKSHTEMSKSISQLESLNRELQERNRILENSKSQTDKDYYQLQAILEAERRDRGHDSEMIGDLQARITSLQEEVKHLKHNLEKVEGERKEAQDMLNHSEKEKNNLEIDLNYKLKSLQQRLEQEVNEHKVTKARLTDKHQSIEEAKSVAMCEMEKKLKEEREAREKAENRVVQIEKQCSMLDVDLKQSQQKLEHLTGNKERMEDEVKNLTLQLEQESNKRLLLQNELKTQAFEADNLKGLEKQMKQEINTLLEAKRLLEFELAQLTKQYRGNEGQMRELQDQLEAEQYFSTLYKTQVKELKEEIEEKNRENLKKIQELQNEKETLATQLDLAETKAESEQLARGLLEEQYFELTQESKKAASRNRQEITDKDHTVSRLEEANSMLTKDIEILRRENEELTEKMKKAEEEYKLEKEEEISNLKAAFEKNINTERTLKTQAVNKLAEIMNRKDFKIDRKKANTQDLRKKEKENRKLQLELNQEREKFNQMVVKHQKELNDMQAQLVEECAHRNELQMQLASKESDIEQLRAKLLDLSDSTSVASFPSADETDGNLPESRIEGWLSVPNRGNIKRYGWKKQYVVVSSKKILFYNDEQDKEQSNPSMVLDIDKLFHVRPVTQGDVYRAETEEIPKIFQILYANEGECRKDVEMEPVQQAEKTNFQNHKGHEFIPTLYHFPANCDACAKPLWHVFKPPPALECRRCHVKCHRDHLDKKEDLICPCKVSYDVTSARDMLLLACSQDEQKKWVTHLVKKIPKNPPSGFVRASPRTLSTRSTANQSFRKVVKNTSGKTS
T29 sequence (Q96Q40 whole entry): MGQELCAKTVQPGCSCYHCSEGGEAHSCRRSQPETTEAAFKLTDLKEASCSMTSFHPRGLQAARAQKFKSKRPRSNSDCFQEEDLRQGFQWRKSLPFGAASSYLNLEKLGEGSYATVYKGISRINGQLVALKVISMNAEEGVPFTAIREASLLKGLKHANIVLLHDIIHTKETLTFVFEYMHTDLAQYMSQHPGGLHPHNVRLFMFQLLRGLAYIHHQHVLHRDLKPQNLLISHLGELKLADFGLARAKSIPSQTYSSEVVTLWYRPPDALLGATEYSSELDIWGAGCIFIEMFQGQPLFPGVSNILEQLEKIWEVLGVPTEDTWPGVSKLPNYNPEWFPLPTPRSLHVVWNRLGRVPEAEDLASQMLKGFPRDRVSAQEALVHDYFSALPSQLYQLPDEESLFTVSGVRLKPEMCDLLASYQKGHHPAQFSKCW
T26 sequence (Q15208 whole entry): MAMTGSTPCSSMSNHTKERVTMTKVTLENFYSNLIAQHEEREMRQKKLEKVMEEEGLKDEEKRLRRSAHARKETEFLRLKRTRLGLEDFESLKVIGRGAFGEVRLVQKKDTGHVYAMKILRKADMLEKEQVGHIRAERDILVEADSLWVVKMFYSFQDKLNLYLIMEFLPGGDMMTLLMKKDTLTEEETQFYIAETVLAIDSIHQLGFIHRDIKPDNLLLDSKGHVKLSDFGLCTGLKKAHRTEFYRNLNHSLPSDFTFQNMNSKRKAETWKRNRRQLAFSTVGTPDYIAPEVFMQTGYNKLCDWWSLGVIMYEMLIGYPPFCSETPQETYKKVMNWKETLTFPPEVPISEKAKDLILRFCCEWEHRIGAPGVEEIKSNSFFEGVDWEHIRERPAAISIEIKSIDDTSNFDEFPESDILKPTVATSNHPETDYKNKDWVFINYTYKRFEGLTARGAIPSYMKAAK
T23 sequence (P08581 25-1390): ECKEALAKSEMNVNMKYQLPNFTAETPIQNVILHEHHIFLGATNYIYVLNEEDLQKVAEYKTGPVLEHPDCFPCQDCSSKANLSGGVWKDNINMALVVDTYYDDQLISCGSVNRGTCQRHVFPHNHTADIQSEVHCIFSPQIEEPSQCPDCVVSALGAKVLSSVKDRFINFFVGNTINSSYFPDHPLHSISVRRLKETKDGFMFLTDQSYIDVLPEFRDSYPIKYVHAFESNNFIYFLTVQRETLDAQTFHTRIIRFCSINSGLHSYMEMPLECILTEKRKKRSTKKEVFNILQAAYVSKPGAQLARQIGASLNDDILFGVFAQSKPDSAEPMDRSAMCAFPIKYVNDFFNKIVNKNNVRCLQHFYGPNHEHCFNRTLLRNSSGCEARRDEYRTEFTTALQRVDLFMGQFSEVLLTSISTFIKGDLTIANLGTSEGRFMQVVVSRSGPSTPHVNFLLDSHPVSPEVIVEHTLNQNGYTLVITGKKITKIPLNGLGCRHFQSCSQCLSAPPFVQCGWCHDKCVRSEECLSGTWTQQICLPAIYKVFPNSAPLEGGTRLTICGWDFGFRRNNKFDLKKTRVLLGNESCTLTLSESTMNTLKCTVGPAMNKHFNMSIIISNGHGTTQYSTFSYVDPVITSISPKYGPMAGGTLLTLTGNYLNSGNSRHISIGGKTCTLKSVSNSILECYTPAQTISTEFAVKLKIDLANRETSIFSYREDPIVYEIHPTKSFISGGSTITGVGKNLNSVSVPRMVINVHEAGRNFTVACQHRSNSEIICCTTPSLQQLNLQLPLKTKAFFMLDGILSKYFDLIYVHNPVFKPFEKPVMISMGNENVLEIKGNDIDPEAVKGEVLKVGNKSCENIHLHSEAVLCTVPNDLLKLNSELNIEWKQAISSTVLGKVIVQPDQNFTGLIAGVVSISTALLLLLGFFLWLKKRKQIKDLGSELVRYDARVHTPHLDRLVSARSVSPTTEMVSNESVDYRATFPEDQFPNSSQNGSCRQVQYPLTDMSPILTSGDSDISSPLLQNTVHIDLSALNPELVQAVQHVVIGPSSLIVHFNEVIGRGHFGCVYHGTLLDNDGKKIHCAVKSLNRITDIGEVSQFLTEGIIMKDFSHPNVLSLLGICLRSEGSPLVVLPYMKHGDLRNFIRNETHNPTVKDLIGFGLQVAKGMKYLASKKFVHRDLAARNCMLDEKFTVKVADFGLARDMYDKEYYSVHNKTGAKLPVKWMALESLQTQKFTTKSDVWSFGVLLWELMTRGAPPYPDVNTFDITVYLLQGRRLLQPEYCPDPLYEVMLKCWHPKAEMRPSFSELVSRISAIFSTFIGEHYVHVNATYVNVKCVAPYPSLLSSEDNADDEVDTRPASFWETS
T15 sequence (P54764 20-986): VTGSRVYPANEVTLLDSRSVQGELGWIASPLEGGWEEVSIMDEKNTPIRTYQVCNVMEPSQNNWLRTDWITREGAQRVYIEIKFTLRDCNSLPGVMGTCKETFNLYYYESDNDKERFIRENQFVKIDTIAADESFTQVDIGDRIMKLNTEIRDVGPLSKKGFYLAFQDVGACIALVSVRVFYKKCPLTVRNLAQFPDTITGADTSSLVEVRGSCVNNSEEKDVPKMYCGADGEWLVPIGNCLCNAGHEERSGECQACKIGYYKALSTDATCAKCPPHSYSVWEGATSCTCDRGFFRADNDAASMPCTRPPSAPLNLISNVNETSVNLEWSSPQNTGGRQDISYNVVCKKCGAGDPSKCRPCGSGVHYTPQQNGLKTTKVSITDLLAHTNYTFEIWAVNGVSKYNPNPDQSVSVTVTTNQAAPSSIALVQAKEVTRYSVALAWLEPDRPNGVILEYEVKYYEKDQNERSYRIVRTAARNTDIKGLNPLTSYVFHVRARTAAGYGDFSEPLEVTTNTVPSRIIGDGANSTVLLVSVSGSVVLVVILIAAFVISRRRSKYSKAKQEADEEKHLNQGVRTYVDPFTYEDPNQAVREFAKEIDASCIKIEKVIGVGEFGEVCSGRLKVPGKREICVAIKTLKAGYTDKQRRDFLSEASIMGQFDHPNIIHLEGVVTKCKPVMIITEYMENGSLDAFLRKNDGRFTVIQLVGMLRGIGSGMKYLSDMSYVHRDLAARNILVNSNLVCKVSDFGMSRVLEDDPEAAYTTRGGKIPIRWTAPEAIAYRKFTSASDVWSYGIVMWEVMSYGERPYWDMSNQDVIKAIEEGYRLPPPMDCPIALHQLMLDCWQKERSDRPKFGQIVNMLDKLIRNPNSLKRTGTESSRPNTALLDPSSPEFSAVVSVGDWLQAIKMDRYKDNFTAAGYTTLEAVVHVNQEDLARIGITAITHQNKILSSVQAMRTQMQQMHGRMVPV
T12 sequence (P00533 with tags, fused parts or gaps DEL747-750/T751S limits assumed): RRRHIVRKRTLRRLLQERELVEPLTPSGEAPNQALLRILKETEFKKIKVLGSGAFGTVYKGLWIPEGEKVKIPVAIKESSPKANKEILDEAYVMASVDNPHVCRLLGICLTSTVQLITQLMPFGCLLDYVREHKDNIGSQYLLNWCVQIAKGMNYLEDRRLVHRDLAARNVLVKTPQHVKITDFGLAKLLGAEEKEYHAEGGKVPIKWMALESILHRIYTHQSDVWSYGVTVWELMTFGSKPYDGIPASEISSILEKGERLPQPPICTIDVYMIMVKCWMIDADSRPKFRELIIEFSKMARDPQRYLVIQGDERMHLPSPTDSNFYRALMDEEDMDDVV

Structure (SMILES)	% binding compared to no inhibitor control [1]	% binding compared to no inhibitor control [2]	% binding compared to no inhibitor control [3]	% binding compared to no inhibitor control [4]	% binding compared to no inhibitor control [5]	% binding compared to no inhibitor control [6]	% binding compared to no inhibitor control [7]	% binding compared to no inhibitor control [8]	% binding compared to no inhibitor control [9]	% binding compared to no inhibitor control [10]	% binding compared to no inhibitor control [11]	% binding compared to no inhibitor control [12]	% binding compared to no inhibitor control [13]	% binding compared to no inhibitor control [14]	% binding compared to no inhibitor control [15]	% binding compared to no inhibitor control [16]	% binding compared to no inhibitor control [17]	% binding compared to no inhibitor control [18]	% binding compared to no inhibitor control [19]	% binding compared to no inhibitor control [20]	other results
COc1ccc(-c2cc3nccn3c(Nc3ncccc3C(N)=O)n2)cc1OC.Cl.Cl [BAY61-3606, 2-[7-(3,4-dimethoxyphenyl)-imidazo [1,2-c]pyrimidin-5-ylamino] nicotinamide dihydrochloride, reference compound]	1.6%	81%	83%	91%	62%	95%	11%	84%	86%	24%	68%	80%	81%	83%	91%	97%	67%	23%	80%	41%	% binding compared to no inhibitor control [21]: 97%; % binding compared to no inhibitor control [22]: 52%; % binding compared to no inhibitor control [23]: 100%; % binding compared to no inhibitor control [24]: 99%; % binding compared to no inhibitor control [25]: 86%; % binding compared to no inhibitor control [26]: 80%; % binding compared to no inhibitor control [27]: 67%; % binding compared to no inhibitor control [28]: 47%; % binding compared to no inhibitor control [29]: 85%; % binding compared to no inhibitor control [30]: 26%; % binding compared to no inhibitor control [31]: 92%; % binding compared to no inhibitor control [32]: 100%; % binding compared to no inhibitor control [33]: 24%; % binding compared to no inhibitor control [34]: 37%; % binding compared to no inhibitor control [35]: 19%; % binding compared to no inhibitor control [36]: 3.2%; % inhibition ATP binding ([36]; ROCK1, KINOMEscan, 1 μM): 96.8%; % binding compared to no inhibitor control [37]: 74%; % binding compared to no inhibitor control [38]: 95%; % binding compared to no inhibitor control [39]: 53%
COc1ccccc1Nc1nc(-c2ccc(OC)c(OC)c2)cc2nccn12 [BAY derivative 6]	52%	92%	100%	87%	100%	100%	100%	94%	88%	56%	100%	89%	81%	100%	92%	100%	75%	100%	1.2%	100%	% binding compared to no inhibitor control [21]: 85%; % binding compared to no inhibitor control [22]: 74%; % binding compared to no inhibitor control [23]: 100%; % binding compared to no inhibitor control [24]: 100%; % binding compared to no inhibitor control [25]: 89%; % binding compared to no inhibitor control [26]: 100%; % binding compared to no inhibitor control [27]: 100%; % binding compared to no inhibitor control [28]: 67%; % binding compared to no inhibitor control [29]: 100%; % binding compared to no inhibitor control [30]: 100%; % binding compared to no inhibitor control [31]: 100%; % binding compared to no inhibitor control [32]: 100%; % binding compared to no inhibitor control [33]: 100%; % binding compared to no inhibitor control [34]: 100%; % binding compared to no inhibitor control [35]: 93%; % binding compared to no inhibitor control [36]: 81%; % binding compared to no inhibitor control [37]: 100%; % binding compared to no inhibitor control [38]: 100%; % binding compared to no inhibitor control [39]: 82%
